Key:
HEK 293T cells = test: TdT-based nucleotide incorporation into hgRNA sites (DNA-synthesis based recording system, Cas9 + hgRNA + TdT) upon deoxyribonucleoside input signal; type: cell-based
Description: The disclosed system has been prototyped in HEK-293T cells. A hgRNA was co-expressed with terminal deoxynucleotidyl transferase (TdT), and Cas9. The TdT was directed to the double-stranded breaks created by Cas9 at the hgRNA sites and added nucleotides in HEK 293T cells (FIG. 1B).
HEK 293T cells were treated with an adenosine deaminase inhibitor, pentostatin (deoxycoformycin, dCF), that inhibits degradation of dAdo, resulting in an altered nucleotide pool. The added small molecules (dAdo, dGuo, dCF etc) were defined as the input signal. The percentage change in the TdT-based nucleotides incorporated into the hgRNA sites was defined as the output signal.
(§1) Further, this system allowed for the recording of a dose response in the output signal for varying concentrations of the input signals of dAdo, dThd and dGuo (FIGS. 2A, 2B and 2C). […] None of the current genetically encoded signal recording systems^12,13 synthesize a DNA-based record in a dose response manner in mammalian cells. This salient feature of being able to synthesize a record of various NTP concentrations in the genome of cells can help in the spatial reconstruction of tightly packed together cells in tissue. Moreover, since the output signal is high (e.g. with 5 mM dThd), several lower concentrations can be distinguished, thus providing a single-cell level resolution.

HEK cells = test: Toxicity of input signal treatment to cells; type: cell-based; settings: 500 μM treatment
Description: as §1

[1] = input signal 5 mM, HEK 293T cells, FIG. 2B

## OC[C@H]1O[C@@H](n2cnc3c2NC=NC[C@H]3O)C[C@@H]1O [dCF, pentostatin]
HEK 293T cells; HEK 293T cells
  output signal response to input signal (in words): high output signal response

## Cc1cn([C@H]2C[C@H](O)[C@@H](CO)O2)c(=O)[nH]c1=O [dThd, deoxythymidine]
HEK 293T cells; [1]
  output signal (percentage change in TdT-based nucleotides incorporated into the hgRNA sites) for A: 8%
  output signal (percentage change in TdT-based nucleotides incorporated into the hgRNA sites) for C: 10%
  output signal (percentage change in TdT-based nucleotides incorporated into the hgRNA sites) for G: 17.5%
  output signal (percentage change in TdT-based nucleotides incorporated into the hgRNA sites) for T: 20%

## Nc1nc2c(ncn2[C@H]2C[C@H](O)[C@@H](CO)O2)c(=O)[nH]1 [dGuo, deoxyguanosine]
HEK 293T cells; HEK 293T cells
  output signal response to input signal (in words): high output signal response

## Nc1ncnc2c1ncn2[C@H]1C[C@H](O)[C@@H](CO)O1 [dAdo, deoxyadenosine]
HEK 293T cells; 0 to 500 μM, except for 50 μM treatment, FIG. 2A
  dose response in the output signal with each increasing concentration of input signal: higher output signal
HEK 293T cells; HEK 293T cells
  output signal response to input signal (in words): high output signal response
HEK cells
  toxicity to HEK cells: toxic

Source: patent publication US20220282295A1, “SINGLE-CELL LEVEL CONNECTOMICS USING A DNA-SYNTHESIS BASED BARCODING SYSTEM AND METHODS OF USING THE SAME” (Northwestern University, priority 2021, published 2022)
